Measured values taken from US12685312B2, “Sulfonamide apyrase inhibitors” (Texas Crop Science, Inc., priority 2022, dated 2026).

Each compound was assayed on apyrase (assay: Screen for apyrase inhibitors (Method 1, in vitro phosphate-release absorbance assay)). Conditions: inhibitor conc at 1 mM stock, 1 hr room temperature, absorbance 630 nm; rounded average of two assay results.
Assay type: biochemical
Method in brief: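 Phosphate-release colorimetric assay (Windsor method) in 60 mM Hepes, 3 mM MgCl2, 3 mM CaCl2, 3 mM ATP, pH 6.5, with compound or DMSO control added. Released phosphate developed with ammonium molybdate and ascorbic acid/TCA, then stopped with citrate/acetic acid.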

% Inhibition of Apyrase	SMILES
60%	Cc1ccc(NS(=O)(=O)c2ccc(Cl)c(C(=O)N3CCc4ccccc43)c2)cc1C [I-459, 4-chloro-N-(3,4-dimethylphenyl)-3-(indoline-1-carbonyl)benzenesulfonamide]
53%	CC(=O)c1cc2c(cc1NC(=O)c1ccc(S(=O)(=O)N3CCCc4ccccc43)cc1)OCO2 [I-881, N-(6-acetylbenzo[d][1,3]dioxol-5-yl)-4-((3,4-dihydroquinolin-1(2H)-yl)sulfonyl)benzamide]
53%	Cc1ccccc1NS(=O)(=O)c1ccc(C(=O)N2c3ccccc3CC2C)cc1 (stereo not drawn) [I-879, 4-(2-methylindoline-1-carbonyl)-N-(o-tolyl)benzenesulfonamide]
59%	CSc1cccc(NC(=O)c2cccc(S(=O)(=O)N3c4ccccc4CC3C)c2)c1 (stereo not drawn) [I-468, 3-((2-methylindolin-1-yl)sulfonyl)-N-(3-(methylthio)phenyl)benzamide]
46%	O=C(Nc1cccc(S(=O)(=O)Nc2ccccc2Cl)c1)c1ccccn1 [I-745, N-(3-(N-(2-chlorophenyl)sulfamoyl)phenyl)picolinamide]
1%	O=C(Nc1nnc[nH]1)c1cccc(NS(=O)(=O)c2ccc(Br)cc2)c1 [I-672, 3-((4-bromophenyl)sulfonamido)-N-(4H-1,2,4-triazol-3-yl)benzamide]
53%	O=C(Nc1cccc(S(=O)(=O)Nc2ccc(Cl)cc2)c1)c1ccc(=O)n(Cc2ccccc2)n1 [I-737, 1-benzyl-N-(3-(N-(4-chlorophenyl)sulfamoyl)phenyl)-6-oxo-1,6-dihydropyridazine-3-carboxamide]
68%	CCOC(=O)c1sc(NC(=O)c2cccc(S(=O)(=O)Nc3ccc(F)cc3)c2)cc1C [I-431, ethyl 5-(3-(N-(4-fluorophenyl)sulfamoyl)benzamido)-3-methylthiophene-2-carboxylate]
1%	CCOc1ccc(NS(=O)(=O)c2cccc(C(=O)Nc3ccc(OC)cc3)c2)cc1 [I-614, 3-(N-(4-ethoxyphenyl)sulfamoyl)-N-(4-methoxyphenyl)benzamide]
2%	CCOc1ccc(S(=O)(=O)Nc2cccc(C(=O)Nc3nnc[nH]3)c2)cc1 [I-671, 3-((4-ethoxyphenyl)sulfonamido)-N-(4H-1,2,4-triazol-3-yl)benzamide]
29%	CC(C)(C)c1ccc(C(=O)Nc2ccccc2NS(=O)(=O)c2cccc(S(N)(=O)=O)c2)cc1 [I-838, 4-(tert-butyl)-N-(2-((3-sulfamoylphenyl)sulfonamido)phenyl) benzamide]
77%	N#Cc1cccc(NC(=O)c2ccc(S(=O)(=O)Nc3ccc(Cl)cc3)cc2)c1 [I-185, 4-(N-(4-chlorophenyl)sulfamoyl)-N-(3-cyanophenyl)benzamide]
12%	Cc1cnc(C(=O)Nc2cccc(S(=O)(=O)N(C)c3ccccc3)c2)cn1 [I-767, 5-methyl-N-(3-(N-methyl-N-phenylsulfamoyl)phenyl)pyrazine-2-carboxamide]
59%	CC1Cc2ccccc2N1S(=O)(=O)c1cccc(C(=O)N2CCCc3ccccc32)c1 (stereo not drawn) [I-465, (3,4-dihydroquinolin-1(2H)-yl)(3-((2-methylindolin-1-yl)sulfonyl)phenyl)methanone]
54%	CC1Cc2ccccc2N1C(=O)c1cccc(S(=O)(=O)Nc2ccccc2F)c1 (stereo not drawn) [I-533, N-(2-fluorophenyl)-3-(2-methylindoline-1-carbonyl)benzenesulfonamide]
64%	COc1ccc(S(=O)(=O)N2CCc3ccccc32)cc1C(=O)Nc1ccccc1C [I-436, 5-(indolin-1-ylsulfonyl)-2-methoxy-N-(o-tolyl)benzamide]
43%	O=C(Nc1ccc(NS(=O)(=O)c2ccc3c(c2)OCCO3)cc1)c1cccc(N2CCCC2=O)c1 [I-886, N-(4-((2,3-dihydrobenzo[b][1,4]dioxine)-6-sulfonamido)phenyl)-3-(2-oxopyrrolidin-1-yl)benzamide]
57%	CCOc1ccc(NS(=O)(=O)c2c(C)cccc2NC(=O)c2ccccc2OC)cc1 [I-820, N-(2-(N-(4-ethoxyphenyl)sulfamoyl)-3-methylphenyl)-2-methoxybenzamide]
3%	Cc1ccc(NC(=O)c2cccc(S(=O)(=O)Nc3ccccc3F)c2)c(F)c1 [I-613, N-(2-fluoro-4-methylphenyl)-3-(N-(2-fluorophenyl)sulfamoyl)benzamide]
40%	COc1ccc(NC(=O)c2cccc(S(=O)(=O)Nc3ccc(Br)cc3)c2)cn1 [I-280, 3-(N-(4-bromophenyl)sulfamoyl)-N-(6-methoxypyridin-3-yl)benzamide]
53%	COc1ccc(Cl)cc1NC(=O)c1cccc(S(=O)(=O)N2CCc3ccccc32)c1 [I-548, N-(5-chloro-2-methoxyphenyl)-3-(indolin-1-ylsulfonyl)benzamide]

% Inhibition of Apyrase	SMILES
72%	O=C(Nc1ccc(C(F)(F)F)cc1)c1cccc(S(=O)(=O)Nc2ccc3c(c2)OCO3)c1 [I-192, 3-(N-(benzo[d][1,3]dioxol-5-yl)sulfamoyl)-N-(4-(trifluoromethyl)phenyl)benzamide]
3%	O=C(Nc1cccc(S(=O)(=O)Nc2ccc(Cl)cc2)c1)c1cnccn1 [I-775, N-(3-(N-(4-chlorophenyl)sulfamoyl)phenyl)pyrazine-2-carboxamide]
50%	Cc1csc(NC(=O)c2cccc(NS(=O)(=O)c3ccc4c(c3)OCCCO4)c2)n1 [I-650, 3-((3,4-dihydro-2H-benzo[b][1,4]dioxepine)-7-sulfonamido)-N-(4-methylthiazol-2-yl)benzamide]
50%	O=C(Nc1cccc(S(=O)(=O)Nc2cccc(Cl)c2)c1)c1ccccn1 [I-741, N-(3-(N-(3-chlorophenyl)sulfamoyl)phenyl)picolinamide]
36%	O=C(Nc1ccc(OC(F)F)cc1)c1ccc(NS(=O)(=O)c2ccccc2)cc1 [I-952, N-(4-(difluoromethoxy)phenyl)-4-(phenylsulfonamido)benzamide]
57%	COc1ccccc1N(C)S(=O)(=O)c1ccc(C(=O)N2CCc3ccc([N+](=O)[O-])cc32)cc1 [I-869, N-(2-methoxyphenyl)-N-methyl-4-(6-nitroindoline-1-carbonyl)benzenesulfonamide]
71%	O=C(c1ccc(S(=O)(=O)Nc2ccccc2)cc1)N1CCc2ccccc21 [I-860, 4-(indoline-1-carbonyl)-N-phenylbenzenesulfonamide]
57%	Cc1cc(S(=O)(=O)Nc2ccc(C(=O)Nc3ccc4c(c3)OCO4)cc2)ccc1F [I-920, N-(benzo[d][1,3]dioxol-5-yl)-4-((4-fluoro-3-methylphenyl)sulfonamido)benzamide]
61%	Cc1ccc(NS(=O)(=O)c2ccc(C(=O)Nc3ccc(C)cc3Br)cc2)cc1 [I-862, N-(2-bromo-4-methylphenyl)-4-(N-(p-tolyl)sulfamoyl)benzamide]
29%	O=C(Nc1ccccc1N1CCCC1=O)c1cccc(S(=O)(=O)N2CCc3ccccc32)c1 [I-600, 3-(indolin-1-ylsulfonyl)-N-(2-(2-oxopyrrolidin-1-yl)phenyl)benzamide]
64%	Cc1cc(C(=O)Nc2cccc(S(=O)(=O)Nc3ccccc3F)c2)c(C)n1C1CC1 [I-705, 1-cyclopropyl-N-(3-(N-(2-fluorophenyl)sulfamoyl)phenyl)-2,5-dimethyl-1H-pyrrole-3-carboxamide]
55%	Cc1ccc(C)c(S(=O)(=O)Nc2cccc(C(=O)Nc3ccc(F)cn3)c2)c1 [I-641, 3-((2,5-dimethylphenyl)sulfonamido)-N-(5-fluoropyridin-2-yl)benzamide]
54%	COc1ccccc1N(C)S(=O)(=O)c1ccc(C(=O)N2CCCc3ccccc32)cc1 [I-877, N-(2-methoxyphenyl)-N-methyl-4-(1,2,3,4-tetrahydroquinoline-1-carbonyl)benzenesulfonamide]
54%	COc1ccccc1N(C)S(=O)(=O)c1ccc(C(=O)N2CCCSc3ccccc32)cc1 [I-878, N-(2-methoxyphenyl)-N-methyl-4-(2,3,4,5-tetrahydrobenzo[b][1,4]thiazepine-5-carbonyl)benzenesulfonamide]
56%	COc1ccc([N+](=O)[O-])cc1NC(=O)c1cccc(S(=O)(=O)N2c3ccccc3CC2C)c1 (stereo not drawn) [I-271, N-(2-methoxy-5-nitrophenyl)-3-((2-methylindolin-1-yl)sulfonyl)benzamide]
41%	Cn1nc(C(=O)Nc2cccc(S(=O)(=O)Nc3cccc(C(F)(F)F)c3)c2)c2ccccc2c1=O [I-750, 3-methyl-4-oxo-N-(3-(N-(3-(trifluoromethyl)phenyl)sulfamoyl)phenyl)-3,4-dihydrophthalazine-1-carboxamide]
56%	Cc1ccc(F)cc1NC(=O)c1cccc(S(=O)(=O)N2CCc3ccccc32)c1 [I-517, N-(5-fluoro-2-methylphenyl)-3-(indolin-1-ylsulfonyl)benzamide]
44%	CC(=O)c1cccc(NC(=O)c2ccc(S(=O)(=O)Nc3ccc(C)cc3)cc2)c1 [I-398, N-(3-acetylphenyl)-4-(N-(p-tolyl)sulfamoyl)benzamide]
66%	O=C(Nc1ccc(S(=O)(=O)Nc2ccc(F)c(Cl)c2)cc1)c1cccc([N+](=O)[O-])c1 [I-972, N-(4-(N-(3-chloro-4-fluorophenyl)sulfamoyl)phenyl)-3-nitrobenzamide]
5%	O=C1CCCN1c1ccccc1NS(=O)(=O)c1ccc(Br)cc1 [I-842, 4-bromo-N-(2-(2-oxopyrrolidin-1-yl)phenyl)benzenesulfonamide]
55%	COc1ccc(C(=O)Nc2ccc(S(=O)(=O)Nc3ccc(Cl)cc3)cc2)cc1 [I-988, N-(4-(N-(4-chlorophenyl)sulfamoyl)phenyl)-4-methoxybenzamide]
